According to ChEMBL document CHEMBL1151150, “Brominated Metabolites from the Sponge Aplysina (verongia) thiona” (J Nat Prod, 1990):
Calls of active or inactive are those of the source.

How the values were obtained:
Format in all cases: functional, organism-based
[1] = test system: Salmonella enterica subsp. enterica serovar Typhi str. CT18; assay: Antimicrobial activity against Salmonella typhi
Streptococcus pyogenes = assay: Antimicrobial activity against Streptococcus pyogenes
Staphylococcus aureus = assay: Antimicrobial activity against Staphylococcus aureus
Shigella sonnei = assay: Antimicrobial activity against Shigella sonnei

Measured: Activity

COc1c(Br)cc2c(c1Br)OC(=N)C2
inactive: all assays above

CCCCCO[C@]1(OC)C(Br)=C[C@@](O)(CC(N)=O)C=C1Br
inactive: all assays above

COc1c(Br)cc2c(c1Br)OC(=O)C2=C(C)C
inactive: all assays above

CCCCO[C@]1(OC)C(Br)=C[C@@](O)(CC(N)=O)C=C1Br
inactive: all assays above
